Assays:
[1] = target: T1, minke whale NIS (wNIS) (Balaenoptera acutorostrata, UniProt A0A384B8D1); assay: inhibition of […]mTcO4 uptake in transduced HeLa cells; format: cell-based
T1 sequence (A0A384B8D1 1-642): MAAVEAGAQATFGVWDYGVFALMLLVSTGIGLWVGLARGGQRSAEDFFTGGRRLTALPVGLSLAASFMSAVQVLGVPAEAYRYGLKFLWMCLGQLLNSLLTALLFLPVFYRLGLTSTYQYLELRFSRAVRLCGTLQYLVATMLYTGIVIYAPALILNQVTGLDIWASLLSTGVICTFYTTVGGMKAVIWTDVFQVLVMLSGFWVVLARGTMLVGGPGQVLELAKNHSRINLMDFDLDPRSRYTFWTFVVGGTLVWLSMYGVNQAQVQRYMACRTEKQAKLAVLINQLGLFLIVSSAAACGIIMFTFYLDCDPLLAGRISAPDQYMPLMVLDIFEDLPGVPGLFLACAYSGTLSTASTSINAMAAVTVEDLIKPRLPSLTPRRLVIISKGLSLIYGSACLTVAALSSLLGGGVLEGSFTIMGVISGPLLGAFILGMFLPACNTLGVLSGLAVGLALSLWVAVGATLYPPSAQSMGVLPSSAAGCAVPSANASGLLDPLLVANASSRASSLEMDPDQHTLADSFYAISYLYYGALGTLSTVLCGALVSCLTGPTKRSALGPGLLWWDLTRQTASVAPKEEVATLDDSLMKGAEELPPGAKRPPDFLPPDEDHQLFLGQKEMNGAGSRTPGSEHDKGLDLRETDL

[2] = target: T2, human NIS (hNIS) (Homo sapiens, UniProt Q92911); assay: as above; format: cell-based
T2 sequence (Q92911 1-643): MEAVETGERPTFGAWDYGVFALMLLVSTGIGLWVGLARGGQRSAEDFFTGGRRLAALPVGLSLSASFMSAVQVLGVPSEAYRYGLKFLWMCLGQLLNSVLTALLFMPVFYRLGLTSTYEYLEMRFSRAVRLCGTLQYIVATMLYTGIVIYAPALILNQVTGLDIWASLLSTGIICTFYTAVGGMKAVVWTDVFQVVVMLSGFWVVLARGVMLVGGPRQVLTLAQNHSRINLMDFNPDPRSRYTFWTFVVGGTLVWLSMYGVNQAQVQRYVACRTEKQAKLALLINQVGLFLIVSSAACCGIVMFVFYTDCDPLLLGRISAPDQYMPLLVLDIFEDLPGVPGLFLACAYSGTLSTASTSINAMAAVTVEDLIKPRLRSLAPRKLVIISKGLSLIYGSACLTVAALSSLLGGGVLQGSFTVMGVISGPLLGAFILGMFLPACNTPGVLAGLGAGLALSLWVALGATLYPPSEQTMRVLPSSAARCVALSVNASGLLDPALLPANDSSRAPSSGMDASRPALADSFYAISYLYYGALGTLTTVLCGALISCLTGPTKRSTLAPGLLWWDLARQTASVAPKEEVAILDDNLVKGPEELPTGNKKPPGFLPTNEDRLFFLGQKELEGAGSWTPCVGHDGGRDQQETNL

Compound [O-][Cl+3]([O-])([O-])O [perchlorate] has an IC50 [1] of 2860 nM and an IC50 [2] of 195 nM.

Reference: PMC7791078 (Molecular Therapy, 2020)
